≈ marks a conversion by molar mass, not a printed value. Calls of active or inactive are those of the source. No cut-off for these calls is given here.
Tests used:
[1] = molecular target: Kelch-like ECH-associated protein 1 (Homo sapiens) (UniProt Q14145); test: Binding affinity to wild-type human N-terminal His6-tagged Keap1 (35 to 178 residues) expressed in baculovirus infected Sf9 insect cells assessed as cysteine-compound adduct formation at 15-fold molar excess measured after 1 hr by RP-LC/MS/MS analysis
[2] = Kinetic solubility of the compound at pH 7.4 by CLND method; assay type: physicochemical; settings: buffer, read-out: Kinetic_solubility
[3] = test system: Kelch-like ECH-associated protein 1 (Homo sapiens), Q14145 [C151S]; test: Binding affinity to human N-terminal His6-tagged Keap1 C151S mutant (35 to 182 residues) expressed in baculovirus infected Sf9 insect cells assessed as cysteine-compound adduct formation at 15-fold molar excess measured after 1 hr by RP-LC/MS/MS analysis
[4] = molecular target: BACH1/MafK (Homo sapiens, UniProt O14867+O60675); test: Inhibition of Bach1-Mafk interaction (unknown origin) by luciferase reporter gene based enzyme fragment complementation assay; assay type: protein assay
[5] = (§1) Activation of Keap1/Cul3/Nrf2 in human BEAS2B cells assessed as increase in NQO1 levels measured after 48 hrs; assay type: cell-based; settings: BEAS-2B
[6] = Binding affinity to FLAG/His-tagged Keap1 (unknown origin)/biotinylated full-length FLAG/His/Tev/Avi-tagged Cul3 (unknown origin) expressed in baculovirus infected Sf9 insect cells measured after 1 hr by TR-FRET assay; set-up: species or system Homo sapiens
[7] = molecular target: Keap1/Nrf2 (Homo sapiens, UniProt Q14145+Q16236); test: Binding affinity to FLAG/His-tagged Keap1 (unknown origin)/biotinylated full-length FLAG/His/Tev/Avi-tagged NRF2 (unknown origin) expressed in baculovirus infected Sf9 insect cells measured after 1 hr by TR-FRET assay
[8] = Lipophilicity, log D of the compound at pH 7.4 by chromatographic method; assay type: physicochemical; settings: buffer
[9] = species: Homo sapiens; test: Activation of Keap1/Cul3/Nrf2 in NHBE cells assessed as induction of HO-1 gene expression at 10 uM after 24 hrs by RT-PCR analysis relative to SFN; assay type: cell-based
[10] = test system: Mus musculus; test: (§2) Antioxidant activity in C57BL/6J mouse model of cigarette smoking-induced oxidative stress assessed as inhibition of total cell infiltration at 0.1 to 100 umol/kg, po dosed 24 hrs prior to cigarette smoking followed by qd dosing with cigarette smoking for 3 days by Wright-Giemsa staining based hemocytometry; assay type: functional, organism-based
[11] = Stability of the compound at 23 degC using crystalline solid sample measured >3 years by 1H-NMR analysis; assay type: physicochemical
[12] = Apparent permeability across apical to basolateral side in MDCK-MDR1; assay type: ADME, cell-based, Canis lupus familiaris; settings: dog
[13] = Stability of the compound at 23 degC using crystalline solid sample measured >3 years by LC/MS analysis; assay type: physicochemical
[14] = test system: Mus musculus; test: Antioxidant activity in po dosed C57BL/6J mouse model of cigarette smoking-induced oxidative stress assessed as inhibition of neutrophil infiltration dosed 24 hrs prior to cigarette smoking followed by qd dosing with cigarette smoking for 3 days by Wright-Giemsa staining based hemocytometry; assay type: functional, organism-based
[15] = species: Homo sapiens; test: as §1; assay type: cell-based
[16] = Drug metabolism in rat assessed as (2S)-2-amino-5-[[(1R)-2-(carboxymethylamino)-1-[3-[[2-(dimethylamino)-3,4-dioxo-cyclobuten-1-yl]-methyl-amino]propylcarbamothioylsulfanylmethyl]-2-oxo-ethyl]amino]-5-oxo-pentanoic acid formation at 2 mg/kg, po; assay type: ADME, organism-based; settings: in vivo
[17] = test system: Mus musculus; test: as §2, with “mononuclear” for “total”; assay type: functional, organism-based
[18] = Drug metabolism in rat assessed as (2R)-2-acetamido-3-[3-[[2-(dimethylamino)-3,4-dioxo-cyclobuten-1-yl]-methyl-amino]propylcarbamothioylsulfanyl]propanoic acid formation at 2 mg/kg, po; assay type: ADME, organism-based; settings: in vivo
[19] = Apparent permeability across basolateral to apical side in MDCK-MDR1; assay type: ADME, cell-based, Canis lupus familiaris; settings: dog
[20] = test system: Mus musculus; test: as §2, with “neutrophil” for “total cell”; assay type: functional, organism-based
[21] = Solubility of the compound in FaSSIF at pH 6.5 using solid sample; assay type: physicochemical

Chain of Keap1/Nrf2 (Q16236 whole entry): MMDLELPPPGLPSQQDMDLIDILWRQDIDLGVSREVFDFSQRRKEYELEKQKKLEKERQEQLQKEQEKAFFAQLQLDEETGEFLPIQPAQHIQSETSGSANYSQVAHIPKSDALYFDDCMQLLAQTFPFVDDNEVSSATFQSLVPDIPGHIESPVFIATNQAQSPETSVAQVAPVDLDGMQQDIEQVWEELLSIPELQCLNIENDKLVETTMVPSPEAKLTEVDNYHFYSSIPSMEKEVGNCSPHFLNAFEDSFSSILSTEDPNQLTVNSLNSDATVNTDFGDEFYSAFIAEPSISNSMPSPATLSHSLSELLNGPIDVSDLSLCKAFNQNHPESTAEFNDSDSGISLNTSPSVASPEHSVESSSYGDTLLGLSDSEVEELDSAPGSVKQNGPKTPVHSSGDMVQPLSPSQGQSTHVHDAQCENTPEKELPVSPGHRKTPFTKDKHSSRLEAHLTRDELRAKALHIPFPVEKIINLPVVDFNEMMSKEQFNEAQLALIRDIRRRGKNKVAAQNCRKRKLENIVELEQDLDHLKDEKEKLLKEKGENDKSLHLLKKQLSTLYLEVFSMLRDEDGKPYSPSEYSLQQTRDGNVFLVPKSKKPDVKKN
Chain of Keap1/Nrf2 (Q14145 whole entry): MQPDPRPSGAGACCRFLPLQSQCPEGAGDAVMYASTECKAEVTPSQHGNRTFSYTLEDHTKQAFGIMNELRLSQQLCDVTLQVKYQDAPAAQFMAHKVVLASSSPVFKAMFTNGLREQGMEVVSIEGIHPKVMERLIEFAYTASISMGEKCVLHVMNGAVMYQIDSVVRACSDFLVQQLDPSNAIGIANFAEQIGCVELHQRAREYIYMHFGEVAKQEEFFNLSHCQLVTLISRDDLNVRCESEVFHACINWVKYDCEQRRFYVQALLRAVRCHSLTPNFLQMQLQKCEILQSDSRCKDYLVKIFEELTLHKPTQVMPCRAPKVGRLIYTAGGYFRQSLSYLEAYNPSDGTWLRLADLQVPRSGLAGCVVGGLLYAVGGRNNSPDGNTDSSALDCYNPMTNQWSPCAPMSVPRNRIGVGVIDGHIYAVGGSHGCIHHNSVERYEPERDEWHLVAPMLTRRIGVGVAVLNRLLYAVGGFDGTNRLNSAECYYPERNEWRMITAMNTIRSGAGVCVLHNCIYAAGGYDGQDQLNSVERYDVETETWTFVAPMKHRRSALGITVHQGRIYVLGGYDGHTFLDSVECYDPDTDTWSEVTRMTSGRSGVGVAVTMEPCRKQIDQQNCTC
Chain of Kelch-like ECH-associated protein 1 (Homo sapiens), Q14145 [C151S] (Q14145 whole entry C151S, the tested form may be a part): as the sequence (Q14145 whole entry) above, with C151S counted along it
Chain of BACH1/MafK (O60675 whole entry, the tested form may be a part): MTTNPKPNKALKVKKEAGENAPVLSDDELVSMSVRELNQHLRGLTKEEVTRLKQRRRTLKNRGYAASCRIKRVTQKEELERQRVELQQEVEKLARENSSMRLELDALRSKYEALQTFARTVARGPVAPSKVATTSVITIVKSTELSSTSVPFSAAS
Chain of BACH1/MafK (O14867 whole entry, the tested form may be a part): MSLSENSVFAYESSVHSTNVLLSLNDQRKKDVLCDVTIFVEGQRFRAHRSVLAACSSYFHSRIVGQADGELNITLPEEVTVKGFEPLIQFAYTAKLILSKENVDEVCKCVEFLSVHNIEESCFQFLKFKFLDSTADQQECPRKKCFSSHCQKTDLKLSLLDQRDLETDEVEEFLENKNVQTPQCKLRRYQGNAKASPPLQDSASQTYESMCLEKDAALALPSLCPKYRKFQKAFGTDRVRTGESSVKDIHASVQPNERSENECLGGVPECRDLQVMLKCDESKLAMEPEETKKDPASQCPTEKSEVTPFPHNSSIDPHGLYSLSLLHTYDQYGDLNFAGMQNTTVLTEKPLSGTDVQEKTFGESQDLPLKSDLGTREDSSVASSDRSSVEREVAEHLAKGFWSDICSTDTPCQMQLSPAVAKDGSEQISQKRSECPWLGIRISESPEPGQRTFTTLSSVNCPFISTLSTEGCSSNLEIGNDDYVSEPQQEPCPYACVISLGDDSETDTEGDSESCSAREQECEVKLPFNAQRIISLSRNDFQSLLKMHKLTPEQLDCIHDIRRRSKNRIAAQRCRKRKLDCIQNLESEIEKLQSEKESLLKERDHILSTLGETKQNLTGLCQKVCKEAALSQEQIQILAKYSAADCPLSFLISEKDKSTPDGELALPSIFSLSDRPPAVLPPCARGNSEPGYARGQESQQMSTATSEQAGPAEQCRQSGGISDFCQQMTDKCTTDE
Chain of Kelch-like ECH-associated protein 1 (Homo sapiens) (Q14145 whole entry, the tested form may be a part): as the sequence (Q14145 whole entry) above

C[S+]([O-])CCCCN=C=S (racemic) [SULFORAPHANE]
Activity [1]: Active
solubility kinetic [2]: 271 µM (≈ 48 µg/mL)
Activity [3]: Active
IC50 [4]: 15800 nM
EC50 [5]: 1580 to 2090 nM
pIC50 [6]: < 4

COC(=O)[C@]12CCC(C)(C)C[C@H]1[C@H]1C(=O)C=C3[C@@]4(C)C=C(C#N)C(=O)C(C)(C)[C@@H]4CC[C@@]3(C)[C@]1(C)CC2 [BARDOXOLONE METHYL]
EC50 [5]: 8.71 nM

C[S+]([O-])CCCCNC(=S)SC[C@H](NC(=O)CC[C@H](N)C(=O)O)C(=O)NCC(=O)O (stereo partly specified)
IC50 [7]: > 100000 nM
solubility kinetic [2]: ≥ 290 µM
chromatographic logD [8]: -0.75
EC50 [5]: 1580 nM
fold change (FC) [9]: 5.8
pIC50 [6]: < 4

CC(=O)N[C@@H](CSC(=S)NCCCC[S+](C)[O-])C(=O)O (stereo partly specified)
IC50 [7]: > 100000 nM
solubility kinetic [2]: ≥ 357 µM
chromatographic logD [8]: -0.67
EC50 [5]: 1580 nM
fold change (FC) [9]: 5.8
pIC50 [6]: < 4

CC(=O)N[C@@H](CSC(=S)NCCCN(C)c1c(N(C)C)c(=O)c1=O)C(=O)O
EC50 [5]: 1580 nM

CN(C)c1c(N(C)CCCN=C=S)c(=O)c1=O
IC50 [7]: > 100000 nM
Activity [1]: Active
solubility kinetic [2]: ≥ 394 µM
inhibition [10]: Active
chromatographic logD [8]: 2.14 to 2.39
Stability [11]: Stable
Papp A→B [12]: 12.5 ×10⁻⁶ cm/s
Stability [13]: Stable
inhibition [14]: Dose-dependent effect
Activity [3]: Active
IC50 [4]: 3160 nM
EC50 [5]: 1580 to 1660 nM
Activity [15]: Dose-dependent effect
Drug metabolism [16]: Metabolite_Detected
inhibition [17]: Active
fold change (FC) [9]: 24.9 to 25
Drug metabolism [18]: Metabolite_Detected
Papp B→A [19]: 7.67 ×10⁻⁶ cm/s
inhibition [20]: Active
solubility thermodynamic [21]: 8000 µg/mL (≈ 31.6 mM)
pIC50 [6]: 4.3
